Experimental data reported in PMC9418665, “Fatty acid amide hydrolase inhibition and N‐arachidonoylethanolamine modulation by isoflavonoids: A novel target for upcoming antidepressants” (Pharmacology Research & Perspectives, 2022).
Read-outs that look alike come from different tables or passages of the source.

Target: T1, fatty acid amide hydrolase (FAAH) (Homo sapiens, UniProt O00519)
T1 sequence (O00519 1-579): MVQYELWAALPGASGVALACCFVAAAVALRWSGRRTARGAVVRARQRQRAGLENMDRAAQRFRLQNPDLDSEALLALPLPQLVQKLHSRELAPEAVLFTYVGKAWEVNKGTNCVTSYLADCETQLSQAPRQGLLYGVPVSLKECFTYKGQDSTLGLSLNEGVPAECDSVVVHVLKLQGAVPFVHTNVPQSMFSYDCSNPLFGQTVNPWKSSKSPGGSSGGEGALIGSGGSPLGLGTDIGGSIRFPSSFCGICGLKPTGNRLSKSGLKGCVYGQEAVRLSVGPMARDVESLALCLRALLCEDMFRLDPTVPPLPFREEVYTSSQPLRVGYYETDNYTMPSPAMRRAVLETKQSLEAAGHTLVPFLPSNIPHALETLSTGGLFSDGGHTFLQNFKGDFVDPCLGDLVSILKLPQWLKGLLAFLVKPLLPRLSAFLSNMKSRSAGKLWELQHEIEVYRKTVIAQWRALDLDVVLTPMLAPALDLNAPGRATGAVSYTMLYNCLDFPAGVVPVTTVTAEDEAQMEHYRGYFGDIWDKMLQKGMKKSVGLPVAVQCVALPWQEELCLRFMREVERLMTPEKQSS
Assay: biochemical

| IC50 (read-out: IC50) [nM] | Compound | IC50 [nM] |
| --- | --- | --- |
|  | O=c1cc(-c2ccccc2)oc2cc(O)ccc12 [7-hydroxyflavone] | 2040 ± 190 |
|  | CCCCC/C=C\C/C=C\C/C=C\C/C=C\CCCC(=O)NCCc1c[nH]c2ccc(O)cc12 [arch-5HT] | 1040 ± 130 |
| 2100 ± 240 | COc1ccc(-c2coc3cc(O)cc(O)c3c2=O)cc1 [biochanin-A] |  |
| 1300 ± 130 | O=c1c(-c2ccc(O)cc2)coc2cc(O)cc(O)c12 [genistein] |  |
